{"source": "patent US8003659B2", "about": "“Macrocyclic serine protease inhibitors” (Indenix Pharmaceuticals, Inc., priority 2008, dated 2011)", "key": {"[1]": {"tested_on": "Huh-7 cells containing HCV Con1 subgenomic replicon (GS4.1 cells)", "assay": "HCV Replicon Assay (NS4A ELISA)", "assay_type": "cell-based", "conditions": "Hepatitis C virus, Huh-7, 72 hr, NS4A protein by ELISA", "procedure": "General procedure: Huh-7 cells containing HCV Con1 subgenomic replicon (GS4.1 cells) were grown in Dulbecco's Modified Eagle Medium (DMEM) supplemented with 10% fetal bovine serum (FBS), 2 mM L-glutamine, 110 mg/L sodium pyruvate, 1× non-essential amino acids, 100 U/mL penicillin-streptomycin, and 0.5 mg/mL G418 (Invitrogen). For dose-response testing, the cells were seeded in 96-well plates at 7.5×10^3 cells/well in a volume of 50 μL, and incubated at 37° C./5% CO2. Three hours after plating, 50 μL of ten 2-fold serial dilutions of compounds (highest concentration, 75 μM) were added, and cell cultures were incubated at 37° C./5% CO2 in the presence of 0.5% DMSO. Alternatively, compounds were tested at a single concentration of 15 μM. In all cases, Huh-7 cells lacking the HCV replicon served as negative control. The cells were incubated in the presence of compounds for 72 hr after which they were monitored for expression of the NS4A protein by enzyme-linked immunosorbent assay (ELISA). For this, the plates were then fixed for 1 min with acetone/methanol (1:1, v/v), washed twice with phosphate-buffered saline (PBS), 0.1% Tween 20, blocked for 1 hr at room temperature with TNE buffer containing 10% FBS and then incubated for 2 hr at 37° C. with the anti-NS4A mouse monoclonal antibody A-236 (ViroGen) diluted in the same buffer. After washing three times with PBS, 0.1% Tween 20, the cells were incubated 1 hr at 37° C. with anti-mouse immunoglobulin G-peroxidase conjugate in TNE, 10% FBS. After washing as described above, the reaction was developed with O-phenylenediamine (Zymed). The reaction was stopped after 30 min with 2 NH2SO4, and absorbance was read at 492 nm using Sunrise Tecan spectrophotometer. EC50 values were determined from the % inhibition versus concentration data using a sigmoidal non-linear regression analysis based on four parameters with Tecan Magellan software. When screening at a single concentration, the results were expressed as % inhibition at 15 μM."}, "HCV NS3-NS4A protease": {"molecular_target": "T1, HCV NS3-NS4A protease (Hepatitis C virus genotype 1b, UniProt P26663)", "T1 construct": "made in house", "T1 sequence (P26663 1027-1208)": "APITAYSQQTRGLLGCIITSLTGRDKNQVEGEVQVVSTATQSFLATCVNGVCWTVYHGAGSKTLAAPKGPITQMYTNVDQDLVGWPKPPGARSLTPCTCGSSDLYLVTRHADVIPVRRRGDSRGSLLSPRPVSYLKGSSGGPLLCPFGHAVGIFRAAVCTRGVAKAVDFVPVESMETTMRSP", "assay": "HCV Protease Assay (SensoLyte 620 HCV Protease Assay kit)", "assay_type": "biochemical", "conditions": "1.2 nM HCV NS3-NS4A protease, 60 min at room temperature, 5% DMSO", "procedure": "General procedure: Measurement of the inhibitory effect of compounds on HCV protease activity was performed with the SensoLyte™ 620 HCV Protease Assay kit from AnaSpec, Inc. (San Jose, Calif.) under conditions described by the supplier using 1.2 nM HCV NS3-NS4A protease, which was obtained according to Taremi et al. (Protein Science, 1998, 7, 2143-2149). The compounds were tested at a variety of concentrations in assay buffer containing a final DMSO concentration of 5%. Reactions were allowed to proceed for 60 min at room temperature and fluorescence measurements were recorded with a Tecan Infinity Spectrofluorimeter. The IC50 values were determined from the percent inhibition versus concentration data using a sigmoidal non-linear regression analysis based on four parameters with Tecan Magellan software."}, "[2]": {"assay": "Cytotoxicity evaluation (Cell Titer 96 AQueous One Solution Cell Proliferation Assay)", "assay_type": "cell-based", "conditions": "human; GS4.1 cells, cellular viability", "procedure": "For cytotoxicity evaluation, GS4.1 cells were treated with compounds as described above and cellular viability was monitored using the Cell Titer 96 AQueous One Solution Cell Proliferation Assay (Promega). CC50 values were determined from the % cytotoxicity versus concentration data with Tecan Magellan software as described above."}}, "data": [{"compound": "COc1ccc2c(O[C@H]3C[C@H]4C(=O)N(C)CCCC/C=C\\[C@@H]5C[C@@]5(C(=O)NS(=O)(=O)C5(C)CC5)NC(=O)N4C3)cc(-c3csc(C(F)(F)F)n3)nc2c1Cl", "note": "[Compound O2, (Z)-(4R,6S,15S,17S)-[17-[8-chloro-7-methoxy-2-(2-trifluoromethylthiazol-4-yl)quinolin-4-yloxy]-13-N-methyl-2,14-dioxo-1,3,13-triazatricyclo-[13.3.0.0]octadec-7-en-4-yl]carbonyl-(1-methylcyclopropyl)sulfonamide]", "values": [{"measurement": "EC50", "setting": "[1]", "value": "< 1000", "unit": "nM"}, {"measurement": "IC50", "setting": "HCV NS3-NS4A protease", "value": "< 1000", "unit": "nM"}, {"measurement": "CC50", "setting": "[2]", "value": "10 to 75", "unit": "µM"}]}, {"compound": "COc1ccc2c(O[C@H]3C[C@H]4C(=O)N(C)CCCC/C=C\\[C@@H]5C[C@@]5(C(=O)NS(=O)(=O)C5(C)CC5)NC(=O)N4C3)cc(-c3nc(C(C)C)cs3)nc2c1F", "note": "[Compound 56c, (Z)-(4R,6S,15S,17S)-[17-[8-fluoro-7-methoxy-2-(4-isopropylthiazol-2-yl)quinolin-4-yloxy]-13-N-methyl-2,14-dioxo-1,3,13-triazatricyclo[13.3.0.0]octadec-7-en-4-yl]carbonyl(1-methyl-cyclopropyl)sulfonamide]", "values": [{"measurement": "EC50", "setting": "[1]", "value": "< 1000", "unit": "nM"}, {"measurement": "IC50", "setting": "HCV NS3-NS4A protease", "value": "< 1000", "unit": "nM"}, {"measurement": "CC50", "setting": "[2]", "value": "> 75", "unit": "µM"}]}, {"compound": "COc1ccc2c(O[C@H]3C[C@H]4C(=O)N(C)CCCC/C=C\\[C@@H]5C[C@@]5(C(=O)NS(=O)(=O)C5CC5)NC(=O)N4C3)cc(-c3csc(C(F)(F)F)n3)nc2c1C", "note": "[Compound O3, (Z)-(4R,6S,15S,17S)-[17-[7-methoxy-8-methyl-2-(2-trifluoromethylthiazol-4-yl)quinolin-4-yloxy]-13-N-methyl-2,14-dioxo-1,3,13-triazatricyclo-[13.3.0.0]octadec-7-en-4-yl]carbonyl-(cyclopropyl)sulfonamide]", "values": [{"measurement": "EC50", "setting": "[1]", "value": "< 1000", "unit": "nM"}, {"measurement": "IC50", "setting": "HCV NS3-NS4A protease", "value": "< 1000", "unit": "nM"}, {"measurement": "CC50", "setting": "[2]", "value": "10 to 75", "unit": "µM"}]}, {"compound": "COc1cc(C)c2nc(-c3nc(C(C)C)cs3)cc(O[C@H]3C[C@H]4C(=O)N(C)CCCC/C=C\\[C@@H]5C[C@@]5(C(=O)NS(=O)(=O)C5CC5)NC(=O)N4C3)c2c1", "note": "[Compound 62f, (Z)-(4R,6S,15S,17S)-[17-[6-methoxy-8-methyl-2-(4-isopropylthiazol-2-yl)quinolin-4-yloxy]-13-N-methyl-2,14-dioxo-1,3,13-triazatricyclo[13.3.0.0]octadec-7-en-4-yl]carbonyl(cyclopropyl)sulfonamide]", "values": [{"measurement": "EC50", "setting": "[1]", "value": "< 1000", "unit": "nM"}, {"measurement": "IC50", "setting": "HCV NS3-NS4A protease", "value": "< 1000", "unit": "nM"}, {"measurement": "CC50", "setting": "[2]", "value": "> 75", "unit": "µM"}]}, {"compound": "COc1ccc2c(O[C@H]3C[C@H]4C(=O)N(C)CCCC/C=C\\[C@@H]5C[C@@]5(C(=O)NS(=O)(=O)C5(C)CC5)NC(=O)N4C3)cc(-c3nc(C4CCC4)cs3)nc2c1Cl", "note": "[AC3, (Z)-(4R,6S,15S,17S)-[17-[8-chloro-7-methoxy-2-(4-cyclobutylthiazol-2-yl)quinolin-4-yloxy]-13-N-methyl-2,14-dioxo-1,3,13-triazatricyclo-[13.3.0.0]octadec-7-en-4-yl]carbonyl-(1-methylcyclopropyl)sulfonamide]", "values": [{"measurement": "EC50", "setting": "[1]", "value": "< 1000", "unit": "nM"}, {"measurement": "IC50", "setting": "HCV NS3-NS4A protease", "value": "< 1000", "unit": "nM"}, {"measurement": "CC50", "setting": "[2]", "value": "> 75", "unit": "µM"}]}, {"compound": "COc1ccc2c(O[C@H]3C[C@H]4C(=O)N(C)CCCC/C=C\\[C@@H]5C[C@@]5(C(=O)NS(=O)(=O)C5(C)CC5)NC(=O)N4C3)cc(-n3ccc(C(F)(F)F)n3)nc2c1C", "note": "[Compound 91c, (Z)-(4R,6S,15S,17S)-[17-[7-methoxy-8-methyl-2-(3-trifluoromethyl-1H-pyrazol-1-yl)quinolin-4-yloxy]-13-N-methyl-2,14-dioxo-1,3,13-triazatricyclo[13.3.0.0]octadec-7-ene-4-yl]carbonyl(1-methylcyclopropyl)sulfonamide]", "values": [{"measurement": "EC50", "setting": "[1]", "value": "< 1000", "unit": "nM"}, {"measurement": "IC50", "setting": "HCV NS3-NS4A protease", "value": "< 1000", "unit": "nM"}, {"measurement": "CC50", "setting": "[2]", "value": "> 75", "unit": "µM"}]}, {"compound": "COc1ccc2c(O[C@H]3C[C@H]4C(=O)N(C)CCCC/C=C\\[C@@H]5C[C@@]5(C(=O)NS(=O)(=O)C5CC5)NC(=O)N4C3)cc(-c3nc(C(F)(F)F)cs3)nc2c1Cl", "note": "[Compound 69d, (Z)-(4R,6S,15S,17S)-[17-[8-chloro-7-methoxy-2-(4-trifluoromethythiazol-2-yl)quinolin-4-yloxy]-13-N-methyl-2,14-dioxo-1,3,13-triazatricyclo[13.3.0.0]octadec-7-en-4-yl]carbonyl(cyclopropyl)sulfonamide]", "values": [{"measurement": "EC50", "setting": "[1]", "value": "< 1000", "unit": "nM"}, {"measurement": "IC50", "setting": "HCV NS3-NS4A protease", "value": "< 1000", "unit": "nM"}, {"measurement": "CC50", "setting": "[2]", "value": "10 to 75", "unit": "µM"}]}, {"compound": "COc1cc2c(O[C@H]3C[C@H]4C(=O)N(C)CCCC/C=C\\[C@@H]5C[C@@]5(C(=O)NS(=O)(=O)C5(C)CC5)NC(=O)N4C3)cc(-c3nc(C(C)C)cs3)nc2cc1Cl", "note": "[Compound 56g, (Z)-(4R,6S,15S,17S)-[17-[7-chloro-6-methoxy-2-(4-isopropylthiazol-2-yl)quinolin-4-yloxy]-13-N-methyl-2,14-dioxo-1,3,13-triazatricyclo[13.3.0.0]octadec-7-en-4-yl]carbonyl(1-methyl-cyclopropyl)sulfonamide]", "values": [{"measurement": "EC50", "setting": "[1]", "value": "< 1000", "unit": "nM"}, {"measurement": "IC50", "setting": "HCV NS3-NS4A protease", "value": "< 1000", "unit": "nM"}, {"measurement": "CC50", "setting": "[2]", "value": "> 75", "unit": "µM"}]}, {"compound": "C#Cc1csc(-c2cc(O[C@H]3C[C@H]4C(=O)N(C)CCCC/C=C\\[C@@H]5C[C@@]5(C(=O)NS(=O)(=O)C5CC5)NC(=O)N4C3)c3ccc(OC)c(C)c3n2)n1", "note": "[Compound G3, (Z)-(4R,6S,15S,17S)-[17-[7-methoxy-8-methyl-2-(4-ethynylthiazol-2-yl)quinolin-4-yloxy]-13-N-methyl-2,14-dioxo-1,3,13-triazatricyclo-[13.3.0.0]octadec-7-en-4-yl]carbonyl(cyclopropyl)sulfonamide]", "values": [{"measurement": "EC50", "setting": "[1]", "value": "< 1000", "unit": "nM"}, {"measurement": "IC50", "setting": "HCV NS3-NS4A protease", "value": "< 1000", "unit": "nM"}, {"measurement": "CC50", "setting": "[2]", "value": "10 to 75", "unit": "µM"}]}, {"compound": "C#CC1(S(=O)(=O)NC(=O)[C@@]23C[C@H]2/C=C\\CCCCN(C)C(=O)[C@@H]2C[C@H](Oc4cc(-c5nc(C(C)C)cs5)nc5c(C)c(OC)ccc45)CN2C(=O)N3)CC1", "note": "[Compound 83b, (Z)-(4R,6S,15S,17S)-[17-[7-methoxy-8-methyl-2-(4-isopropylthiazol-2-yl)quinolin-4-yloxy]-13-N-methyl-2,14-dioxo-1,3,13-triazatricyclo[13.3.0.0]octadec-7-en-4-yl]carbonyl(1-ethynylcyclopropyl)sulfonamide]", "values": [{"measurement": "EC50", "setting": "[1]", "value": "< 1000", "unit": "nM"}, {"measurement": "IC50", "setting": "HCV NS3-NS4A protease", "value": "< 1000", "unit": "nM"}, {"measurement": "CC50", "setting": "[2]", "value": "> 75", "unit": "µM"}]}, {"compound": "COc1cc(C)c2nc(-c3nc(C(C)C)cs3)cc(O[C@H]3C[C@H]4C(=O)N(C)CCCC/C=C\\[C@@H]5C[C@@]5(C(=O)NS(=O)(=O)C5(C)CC5)NC(=O)N4C3)c2c1", "note": "[Compound 56f, (Z)-(4R,6S,15S,17S)-[17-[6-methoxy-8-methyl-2-(4-isopropylthiazol-2-yl)quinolin-4-yloxy]-13-N-methyl-2,14-dioxo-1,3,13-triazatricyclo[13.3.0.0]octadec-7-en-4-yl]carbonyl(1-methyl-cyclopropyl)sulfonamide]", "values": [{"measurement": "EC50", "setting": "[1]", "value": "< 1000", "unit": "nM"}, {"measurement": "IC50", "setting": "HCV NS3-NS4A protease", "value": "< 1000", "unit": "nM"}, {"measurement": "CC50", "setting": "[2]", "value": "> 75", "unit": "µM"}]}, {"compound": "COc1ccc2c(O[C@H]3C[C@H]4C(=O)N(C)CCCC/C=C\\[C@@H]5C[C@@]5(C(=O)NS(=O)(=O)C5(C)CC5)NC(=O)N4C3)cc(-c3nc(C(F)(F)F)cs3)nc2c1Cl", "note": "[Compound 68d, (Z)-(4R,6S,15S,17S)-[17-[8-chloro-7-methoxy-2-(4-trifluoromethythiazol-2-yl)quinolin-4-yloxy]-13-N-methyl-2,14-dioxo-1,3,13-triazatricyclo[13.3.0.0]octadec-7-en-4-yl]carbonyl(1-methylcyclopropyl)sulfonamide]", "values": [{"measurement": "EC50", "setting": "[1]", "value": "< 1000", "unit": "nM"}, {"measurement": "IC50", "setting": "HCV NS3-NS4A protease", "value": "< 1000", "unit": "nM"}, {"measurement": "CC50", "setting": "[2]", "value": "> 75", "unit": "µM"}]}]}
